Two molecules from patent publication US20150335579A1, “MULTILAYER TABLET CONTAINING TELMISARTAN AND HYDROCHLOROTHIAZIDE” (Sawai Pharmaceutical Co., Ltd., priority 2013, published 2015) can be followed below.

The data set in a line: Moisture absorbency of telmisartan and telmisartan meglumine salt. Format: physicochemical. The text has this: As mentioned above, it is known that the hydrolysis of hydrochlorothiazide is promoted by temperature and humidity.

With `CCCc1nc2c(C)cc(-c3nc4ccccc4n3C)cc2n1Cc1ccc(-c2ccccc2C(=O)O)cc1` [telmisartan], where the note is “result in words”, the moisture absorbency entry is recorded as “relatively low”.
Regarding `CCCc1nc2c(C)cc(-c3nc4ccccc4n3C)cc2n1Cc1ccc(-c2ccccc2C(=O)O)cc1.CNCC(O)C(O)C(O)C(O)CO` [telmisartan meglumine salt], the “moisture absorbency relative to telmisartan itself” value is recorded as “about 10 times”.
